According to the supplement of paper PMC10307832:

compound: COc1cc(-c2nn([C@H]3CC[C@H](N4CCN(C(C)=O)CC4)CC3)c3ncnc(N)c23)ccc1NC(=O)c1cc2ccccc2n1C + CS(=O)(=O)CCNCc1ccc(-c2ccc3ncnc(Nc4ccc(OCc5cccc(F)c5)c(Cl)c4)c3c2)o1 [Lapatinib] (partner 2 µM); assay: relative viability (nuclei count vs DMSO), 5 days (fraction); higher = more cells survive; conditions: first compound 0.0128 µM
Procedure, shortened: (§1)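 Each reported value is a median over duplicate plates. It expresses relative viability: treated-well nuclei count divided by vehicle-well nuclei count. Lung cancer cell lines in 1536-well plates were dosed by pin tool a day after seeding, alone with one drug or with a fixed anchor-drug dose plus five library-drug doses (not always all listed) in √10 steps, and nuclei were counted after 5 days.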

Cell Line	relative viability
NCI-H460	1.05
NCI-H2347	1.1
SK-LU-1	0.913
NCI-H1395	0.939
201T	1.11
NCI-H1915	1.08
HCC-827	0.192
LXF-289	1.01
NCI-H23	1.28
NCI-H647	1.24
CAL-12T	0.615
NCI-H1651	0.961
EPLC-272H	0.815
NCI-H2228	1.37
NCI-H1792	0.83
NCI-H1355	1.11
NCI-H3122	1.04
NCI-H1437	0.901
NCI-H1755	1.17
NCI-H2023	0.856
HCC-15	1.08
NCI-H1793	1.01
PC-14	0.308
EKVX	0.217
LC-2-ad	0.988
NCI-H1944	0.944
NCI-H1975	0.891
RERF-LC-KJ	0.911
NCI-H358	0.455
NCI-H650	1.14

same assay, conditions: first compound 0.04048 µM

Cell Line	relative viability
NCI-H460	0.994
NCI-H2347	0.874
SK-LU-1	0.902
NCI-H1395	1.09
201T	1.04
NCI-H1915	1.03
HCC-827	0.172
LXF-289	0.86
NCI-H23	1.03
NCI-H647	0.974
CAL-12T	0.686
NCI-H1651	1.03
EPLC-272H	0.891
NCI-H2228	0.958
NCI-H1792	0.773
NCI-H1355	0.928
NCI-H1437	0.91
NCI-H1755	0.967
NCI-H2023	0.782
HCC-15	0.726
NCI-H1793	0.501
PC-14	0.371
EKVX	0.203
LC-2-ad	0.817
NCI-H1944	0.95
NCI-H1975	0.928
RERF-LC-KJ	0.915
NCI-H358	0.391
NCI-H650	1.36

same assay, conditions: first compound 0.128 µM

Cell Line	relative viability
NCI-H460	0.964
NCI-H2347	0.927
SK-LU-1	0.721
NCI-H1395	0.881
201T	1
NCI-H1915	0.992
HCC-827	0.182
LXF-289	0.876
NCI-H23	1.07
NCI-H647	0.981
CAL-12T	0.659
NCI-H1651	0.621
EPLC-272H	0.997
NCI-H2228	1.14
NCI-H1792	0.883
NCI-H1355	0.952
NCI-H3122	0.99
NCI-H1437	0.77
NCI-H1755	0.974
NCI-H2023	0.923
HCC-15	0.87
NCI-H1793	0.434
PC-14	0.297
EKVX	0.189
LC-2-ad	0.847
NCI-H1944	0.777
NCI-H1975	0.837
RERF-LC-KJ	0.849
NCI-H358	0.335
NCI-H650	0.843

same assay, conditions: first compound 1.28 µM

Cell Line	relative viability
NCI-H460	0.741
NCI-H2347	1.05
SK-LU-1	0.681
NCI-H1395	0.782
201T	0.915
NCI-H1915	1.01
HCC-827	0.204
LXF-289	1.02
NCI-H23	1.09
NCI-H647	0.632
CAL-12T	0.384
NCI-H1651	0.74
EPLC-272H	0.86
NCI-H2228	0.861
NCI-H1792	0.755
NCI-H1355	0.897
NCI-H3122	0.841
NCI-H1437	0.764
NCI-H1755	1.05
NCI-H2023	0.845
HCC-15	0.896
NCI-H1793	0.621
PC-14	0.208
EKVX	0.154
LC-2-ad	0.961
NCI-H1944	0.69
NCI-H1975	0.447
RERF-LC-KJ	0.857
NCI-H358	0.27
NCI-H650	0.837

compound: CO[C@@H]1[C@H](N(C)C(=O)c2ccccc2)C[C@H]2O[C@]1(C)n1c3ccccc3c3c4c(c5c6ccccc6n2c5c31)C(=O)NC4 [Midostaurin] + CS(=O)(=O)N1CCN(Cc2cc3nc(-c4cccc5[nH]ncc45)nc(N4CCOCC4)c3s2)CC1 [Pictilisib] (partner 1 µM); assay: as above; conditions: first compound 0.01 µM
Procedure, shortened: as §1

Cell Line	relative viability
NCI-H460	0.388
NCI-H2347	0.48
SK-LU-1	0.602
NCI-H1395	0.592
201T	0.707
NCI-H1915	0.913
HCC-827	1.03
LXF-289	0.812
NCI-H23	0.448
NCI-H647	0.387
CAL-12T	0.457
NCI-H1651	0.543
EPLC-272H	0.338
NCI-H2228	0.422
NCI-H1792	0.323
NCI-H1355	0.415
NCI-H3122	0.681
NCI-H1437	0.58
NCI-H1755	0.397
NCI-H2023	0.235
HCC-15	0.785
NCI-H1793	0.378
PC-14	0.674
EKVX	0.487
LC-2-ad	0.432
NCI-H1944	0.388
NCI-H1975	0.277
RERF-LC-KJ	0.501
NCI-H358	0.437
NCI-H650	0.829
